From PMC3967244 (Clinical cancer research : an official journal of the …, 2013)
“Also recorded” adds a separate entry of the source. Like-named read-outs stand apart in the source and are kept apart here. Marks after values point to notes of the source that are not given here.

How the values were obtained:
[1] = tested on: RAI avidity of tumor tissue; conditions: cited from earlier work
solid tumors = assay: Efficacy evaluation, objective disease response by RECIST v.1; type: in vivo, human
[2] = tested on: acetylated histone H3 in patient PBMCs; assay: Histone acetylation in peripheral blood mononuclear cells; type: in vivo, human
[3] = tested on: radioactive iodine uptake in refractory thyroid cancer; assay: Radiolabeled sodium iodide; type: in vivo, human; conditions: six of eleven patients with thyroid cancer
[4] = tested on: ST segment and T wave changes; assay: ECG evaluation, graded ST segment and T wave changes; type: in vivo, human
[5] = tested on: patients with solid tumors; conditions: in vivo
[6] = tested on: cutaneous T-cell lymphoma (CTCL); conditions: two Phase II trials, 167 patients with CTCL; cited from earlier work
[7] = tested on: peripheral T-cell lymphoma (PTCL); conditions: two Phase II trials in PTCL; cited from earlier work
[8] = tested on: histone acetylation in PBMCs; conditions: day 1, 8 and 15 schedule, four hours; cited from earlier work
[9] = tested on: differentiated and anaplastic thyroid cancer cell lines; conditions: in vitro, cited from earlier work
[10] = Plasma pharmacokinetics by LC/MS
[11] = tested on: patients with solid tumors; assay: Phase I toxicity evaluation and dose escalation; conditions: four-hour infusion on days 1, 3 and 5 of a 21-day cycle
[12] = 27 of 28 patients, days 1, 3, and 5 of cycle 1

O=C(CCCCCCC(=O)Nc1ccccc1)NO [vorinostat]
RAI in tumor tissue ([1]; one patient): increased

C/C=C1\NC(=O)[C@H]2CSSCC/C=C/[C@H](CC(=O)N[C@H](C(C)C)C(=O)N2)OC(=O)[C@H](C(C)C)NC1=O [romidepsin, Romidepsin]
RECIST-defined objective response (solid tumors; 28 patients with solid tumors, all dose levels): No RECIST-defined objective responses; also recorded: no patient met criteria for RECIST-defined objective response | Patients with stable disease (solid tumors; of 28 patients, minimum of six cycles (18 weeks)): nine | Range of duration of stable disease, thyroid cancer (solid tumors; six patients with thyroid cancer): 26–112 weeks | Median increase in histone acetylation over baseline ([2]; 4h time-point, 9.9 mg/m^2): 3 fold | Increase in histone acetylation in PBMCs ([2]; 4h time-point, dose of 3.3 mg/m^2 or higher): ≥ 2 fold | Accumulation in acetylation over the 5 days of treatment ([2]; days 1, 3, 5): no accumulation in acetylation | Patients with no measurable increase in AcH3 ([2]; dose level 1 or 2): Five of six | Apparent threshold dose for histone acetylation in PBMCs ([2]; fold-increase in acetylation over pre-dose levels by cohort): 3.3 mg/m^2 | RAI uptake on follow-up RAI scans [3]: did not detect meaningful increases; also recorded: None demonstrated significant uptake; also recorded: did not demonstrate a significant increase in RAI uptake | Patients with Grade 2 ST and T wave changes ([4]; 24-hour timepoint, dose level 5 (7 mg/m^2) and onward): over half of patients | Grade 1 ST and T wave changes ([4]; by dose level): noted from the first dose level onward | Grade 2 ST and T wave changes ([4]; dose levels above 5 mg/m^2): observed frequently | Patients requiring dose reduction ([5]; human): 7 of 9 | Anorexia ([5]; human, 21 day): 4 # pts (%) | Grade 4 toxicities ([5]; human, 21 day): none in cycle 1 | Hypocalcemia ([5]; human, 21 day): 5 (18%) # pts (%) | Nausea ([5]; human, 21 day): 3 # pts (%) | Recommended phase II dose (RP2D) ([5]; human, 21 day): 7 mg/m^2 | Vomiting ([5]; human, 21 day): 2 # pts (%) | Vomiting ([5]; human, 21 days): 9 (32%) # pts (%) | Febrile neutropenia [5]: no episodes of febrile neutropenia | Grade 3 nausea and vomiting at dose level 4 [5]: not considered dose-limiting | Overall response rate (ORR) [6]: 34–35% | ORR [7]: 25–38% | Median increase in histone acetylation in PBMCs [8]: 3 fold | Patients with increase in RAI avidity ([1]; patients scanned following romidepsin): 2 of 16 | Expression of thyroglobulin and NIS ([9]; nontoxic doses for 48 – 72 hours): induced expression | Radioactive iodine uptake [9]: increased radioactive iodine uptake | Dose dependence of CMAX and AUCLAST ([10]; 1 to 9 mg/m^2): linear pharmacokinetics | Inter-day patient variability (%CV) for AUCLAST [10, 12]: 2–59% | Inter-day patient variability (%CV) for CMAX [10, 12]: 5–68% | Clearance ([10]; all dose levels): rapid clearance | Plasma romidepsin concentration 14 hours after completing the infusion ([10]; most patients, lower limit of quantitation 2 ng/ml): below the lower limit of quantitation | Dose identified as tolerable [11]: 7 mg/m^2
